Where two headings read alike, the source gives them in different places.
Key:
E. coli K12 = format: cell-based, Escherichia coli; settings: E. coli K12+pSMART-LC-Kan-cynTS vs E. coli K12, M9 minimal media
Protocol: Overnight cultures of strains were grown in 5 ml LB (with antibiotic where appropriate) at 37° C. in a shaking incubator. A 1 v/v % was used to inoculate 10 mL of M9 minimal media. After the cells reached mid-exponential phase, the culture was diluted to an OD600 of 0.200. The cells were further diluted 1:20 and a 10 ul aliquot was used to inoculate each well (˜10^4 cells per well). […] The MIC endpoint is the lowest concentration of compound at which there was no visible growth.

E. coli [1] = format: cell-based, Escherichia coli; settings: aerobic
Protocol: (§1) For MIC evaluations, the final results are expressed in chemical agent concentrations determined by analysis of the stock solution by HPLC (i.e., see Subsection Mb).
The minimum inhibitory concentration (MIC) was determined aerobically in a 96 well-plate format. […] Media supplements were added according to levels reported in the Supplements Table, where specified. Overnight cultures of strains were grown in triplicate in 5 mL LB (with antibiotic where appropriate). A 1% (v/v) inoculum was introduced into a 5 ml culture of M9 minimal media.

E. coli [2] = format: cell-based, Escherichia coli; settings: anaerobic; strain BX_00319.0: BW25113 wild type + pK223-aroH; M9 + Amp 100 μg/mL + 1 mM IPTG
Protocol: as §1
The minimum inhibitory concentration (MIC) was determined anaerobically in a 96 well-plate format. […] Media supplements were added according to levels reported in the Supplements Table, where specified. Overnight cultures of strains were grown in triplicate in 5 mL LB (with antibiotic where appropriate). A 1% (v/v) inoculum was introduced into a 5 ml culture of M9 minimal media.

[3] = tested on: Yeast strains (S288C background); format: cell-based, Saccharomyces cerevisiae
Protocol: The minimum inhibitory concentration (MIC) was determined anaerobically in a 96 well-plate format. […] A 1% (v/v) inoculum was introduced into a 5 ml culture of SD minimal media without vitamins. After the cells reached mid-exponential phase, the culture was diluted to an OD600 of 0.200. The cells were further diluted 1:5 and a 10 μL aliquot was used to inoculate each well of a 96 well plate (˜10^4 cells per well) to total volume of 100 uL. […] Plates were incubated for 72 hours at 30 C. […] Plates were sealed in biobag anaerobic chambers that contained gas generators for anaerobic conditions and incubated for 72 hours at 30 C.

[4] = Reactive extraction of 3-HP from fermentation broth with tertiary amine and co-solvents, single pass extraction efficiency; format: physicochemical
Protocol: Calcium chloride at 1 M was added as a flocculent to reach a final concentration of about 8.2 g/L. Thereafter the pH was adjusted to a pH of approximately 2.0 using sulfuric acid. Thereafter a volume of this modified fermentation broth was centrifuged at approximately 3,200 g for 5 minutes to yield a clarified broth and a pellet, which was discarded.
Portions of the clarified broth were then subjected to reactive extraction by mixing with a tertiary amine non-polar phase comprising various co-solvents.

[5] = tested on: wild-type E. coli BW25113; assay: Toleragram / OD600 / doublings at 3HP 0-50 g/L, E. coli aerobic; format: cell-based, Escherichia coli; settings: control E. coli, aerobic condition, FIG. 15B
Protocol: Overnight cultures of wild-type E. coli BW25113 were grown in triplicate in 5 mL standard LB medium. 100 uL of overnight cultures were used to inoculate triplicate 5 mL samples of M9 minimal medium+3HP, containing 47.7 mM Na2HPO4, 22 mM KH2PO4, 8.6 mM NaCl, 18.7 mM NH4Cl, 2 mM MgSO4, 0.1 mM CaCl2, and 0.4% glucose, with 3HP concentrations ranging from 0-50 g/L. Starting OD600 ranged from 0.02-0.08. Cultures were incubated at 37 C for about 24 hours, and OD600 was recorded every 1-2 hours for the first 8 hours with a final OD600 recorded at about 24 hours. Maximum specific growth rates (μmax) were calculated by determining the optimal fit of exponential trend lines with OD data for the evaluation period. Specific changes in OD600 over approximately 24 hours (Δ24hrOD600) were calculated as the difference in t=24 hr and t=0 optical density, Δ24hrOD600=(ODt=24)−(ODt=0). Specific number of doublings (Nd) were calculated by solving for N in the equation 2^N=(ODt=24)/(ODt=0).

[6] = Tripentylamine with Butanol (2)
[7] = Tripentylamine with Methyl ethyl ketone (4)
[8] = Tripentylamine with Methyl tert-butyl ether (5)
[9] = Tripentylamine with p-Xylene (3)

O=C(O)CCO [3-HP, 3-hydroxypropionic acid]
improvement in the MIC of 3-HP with cynTS plasmid (E. coli K12): over sixty percent
% Increase Over Control (E. coli [1]; strain BX_00301.0: BW25113 wild type + pSmart-LC-Kan-folA-C1, M9 + Kan 20 μg/mL): 40%
% Increase Over Control (E. coli [1]; strain BX_00302.0: BW25113 wild type + pSmart-LC-Kan-folA-ORF, M9 + Kan 20 μg/mL): 20%
% Increase Over Control (E. coli [1]; strain BX_00304.0: BW25113 wild type + pSmart-LC-Kan-menA-ORF, M9 + Kan 20 μg/mL): 40%
% Increase Over Control (E. coli [1]; strain BX_00305.0: BW25113 wild type + pSmart-LC-Kan-pheA-C1, M9 + Kan 20 μg/mL): 40%
% Increase Over Control (E. coli [1]; strain BX_00307.0: BW25113 wild type + pSmart-LC-Kan-tyrA-C1, M9 + Kan 20 μg/mL): 40%
% Increase Over Control (E. coli [1]; strain BX_00309.0: BW25113 wild type + pSmart-LC-Kan-cynTS, M9 + Kan 20 μg/mL): 40%
% Increase Over Control (E. coli [1]; strain BX_00310.0: BW25113 wild type + pSmart-LC-Kan-glyA, M9 + Kan 20 μg/mL): 40%
% Increase Over Control (E. coli [1]; strain BX_00312.0: BW25113 wild type + pSmart-LC-Kan-serA, M9 + Kan 20 μg/mL): 40%
% Increase Over Control (E. coli [1]; strain BX_00313.0: BW25113 wild type + pSmart-LC-Kan-folD, M9 + Kan 20 μg/mL): 20%
% Increase Over Control (E. coli [1]; strain BX_00314.0: BW25113 wild type + pSmart-LC-Kan-aroE, M9 + Kan 20 μg/mL): 40%
% Increase Over Control (E. coli [1]; strain BX_00315.0: BW25113 wild type + pSmart-LC-Kan-aroKB C1, M9 + Kan 20 μg/mL): 40%
% Increase Over Control (E. coli [1]; strain BX_00317.0: BW25113 wild type + pSmart-LC-Kan-ilvA operon, M9 + Kan 20 μg/mL): 40%
% Increase Over Control (E. coli [1]; strain BX_00318.0: BW25113 wild type + pSmart-LC-Kan-cysM, M9 + Kan 20 μg/mL): 40%
% Increase Over Control (E. coli [1]; strain BX_00319.0: BW25113 wild type + pK223-aroH, M9 + Amp 100 μg/mL + 1 mM IPTG): 50%
% Increase Over Control (E. coli [1]; strain BX_00321.0: BW25113 wild type + pK223-ct-his-thrA, M9 + Amp 100 μg/mL + 1 mM IPTG): 75%
% Increase Over Control (E. coli [1]; strain BX_00322.0: BW25113 wild type + pJ61-speFED, M9 + Kan 20 μg/mL): 40%
% Increase Over Control (E. coli [1]; strain BX_00323.0: BW25113 wild type + pJ61-aroG, M9 + Kan 20 μg/mL): 40%
% Increase Over Control (E. coli [1]; strain BX_00324.0: BW25113 wild type + pJ61-thrA, M9 + Kan 20 μg/mL): 40%
% Increase Over Control (E. coli [1]; strain BX_00325.0: BW25113 wild type + pJ61-asd, M9 + Kan 20 μg/mL): 40%
% Increase Over Control (E. coli [1]; strain BX_00326.0: BW25113 wild type + pJ61-ilvA, M9 + Kan 20 μg/mL): 40%
% Increase Over Control (E. coli [1]; strain BX_00327.0: BW25113 wild type + pJ61-cysM, M9 + Kan 20 μg/mL): 40%
% Increase Over Control (E. coli [1]; strain BX_00334.0: BW25113 wild type + pSmart-HC-Amp-cadA, M9 + Amp 100 μg/mL): 60%
% Increase Over Control (E. coli [1]; strain BX_00335.0: BW25113 wild type + pSmart-HC-Amp-prs, M9 + Amp 100 μg/mL): 40%
% Increase Over Control (E. coli [1]; strain BX_00336.0: BW25113 wild type + pSmart-HC-Amp-nrdAB, M9 + Amp 100 μg/mL): 40%
% Increase Over Control (E. coli [1]; strain BX_00337.0: BW25113 wild type + pSmart-HC-Amp-nrdEF, M9 + Amp 100 μg/mL): 40%
% Increase Over Control (E. coli [1]; strain BX_00352.0: BW25113 wild type + pSmart-LC-Kan-metC C1, M9 + Amp 100 μg/mL): 40%
% Increase Over Control (E. coli [1]; strain BX_00353.0: BW25113 wild type + pSmart-HC-Amp-metC, M9 + Amp 100 μg/mL): 80%
% Increase Over Control (E. coli [1]; strain BX_00354.0: BW25113 wild type + pSmart-HC-Amp-cynTS, M9 + Amp 100 μg/mL): 80%
% Increase Over Control (E. coli [1]; strain BX_00356.0: BW25113 wild type + pSmart-HC-Amp-LysA, M9 + Amp 100 μg/mL): 20%
% Increase Over Control (E. coli [1]; strain BX_00357.0: BW25113 wild type + pKK223-aroH*445, M9 + Amp 100 μg/mL + 1 mM IPTG): 50%
% Increase Over Control (E. coli [1]; strain BX_00358.0: BW25113 wild type + pKK223-aroH*447, M9 + Amp 100 μg/mL + 1 mM IPTG): 75%
% Increase Over Control (E. coli [1]; strain BX_00359.0: BW25113 wild type + pKK223-aroH*457, M9 + Amp 100 μg/mL + 1 mM IPTG): 75%
% Increase Over Control (E. coli [1]; strain BX_00361.0: BW25113 wild type + pACYC177 (Kan only)-cynTS, M9 + Kan 20 μg/mL): 40%
% Increase Over Control (E. coli [1]; strain BX_00362.0: BW25113 wild type + pACYC177 (Kan only)-aroH, M9 + Kan 20 μg/mL + 1 mM IPTG): 20%
% Increase Over Control (E. coli [1]; strain BX_00363.0: BW25113 wild type + pACYC177 (kan only)-speB, M9 + Kan 20 μg/mL): 40%
% Increase Over Control (E. coli [1]; strain BX_00364.0: BW25113 wild type + pACYC177 (Kan only)-metE (Version1) (SS090608_13), M9 + Kan 20 μg/mL + 1 mM IPTG): 40%
% Increase Over Control (E. coli [1]; strain BX_00365.0: BW25113 wild type + pACYC177 (Kan only)-metC (Version1) (SS090608_17), M9 + Kan 20 μg/mL): 40%
% Increase Over Control (E. coli [1]; strain BX_00368.0: BW25113 wild type + pBT-3-cynTS, M9 + Cm (20 μg/mL)): 20%
% Increase Over Control (E. coli [1]; strain BX_00370.0: BW25113 wild type + pBT-3-speB, M9 + Cm (20 μg/mL)): 20%
% Increase Over Control (E. coli [2]): 33%
% Increase Over Control ([3]; strain YX-CJR-005 (pYes2.1-Met6) versus YX-CJR-001, anaerobic): 50%
% Increase Over Control ([3]; strain YX-CJR-008 (pyes2.1-ILV1) versus YX-CJR-001, anaerobic): 50%
3-HP mass extractant ([4]; Alamine 336 with Butanol (1)): 0.59 G
3-HP mass raffinate ([4]; Alamine 336 with Butanol (1)): 0.38 G
% 3-HP extracted ([4]; Alamine 336 with Butanol (1)): 61%
% 3-HP raffinate ([4]; Alamine 336 with Butanol (1)): 39%
Total 3HP extracted ([4]; Alamine 336 with Butanol (1)): 0.59 G
3-HP mass raffinate [4, 6]: 0.81 G
% 3-HP extracted [4, 6]: 58%
% 3-HP raffinate [4, 6]: 42%
3-HP mass raffinate [4, 7]: 0.63 G
% 3-HP extracted [4, 7]: 67%
% 3-HP raffinate [4, 7]: 33%
3-HP mass extractant [4, 8]: 0.73 G
% 3-HP extracted [4, 8]: 38%
% 3-HP raffinate [4, 8]: 62%
Total 3HP extracted [4, 8]: 0.73 G
3-HP mass extractant [4, 9]: 0.46 G
% 3-HP extracted [4, 9]: 24%
% 3-HP raffinate [4, 9]: 76%
Total 3HP extracted [4, 9]: 0.46 G
3-HP concentration at which a dramatic reduction in cell density (OD600) at 24 hours starts [5]: ≥ 30 g/L
